Experiment [1] concerns plaques of thoracic aorta. The experiment can be described thus: Fluorescence mapping of lipid oxide in aorta of arteriosclerosis model mouse. The class given is in vivo, Apo-E knockout mouse. To be noted: high fat diet 3 weeks, 500 μM/kg intraperitoneal, 15 minutes after administration, 470 nm/530 nm. How it is done: A 6-week-old male Apo-E knockout mouse (Apo−/−) was fed with a high fat diet, and 3 weeks later, NBD-Pen was administered at 500 μM/kg by intraperitoneal injection.
Fifteen minutes after NBD-Pen administration, the mouse was subjected to three types of mixed anesthesia and sacrificed, and the thoracic aorta was immediately removed. […] An oil red stained image of plaques of the same aortic sample was taken with a digital camera (FIG. 7b).

In experiment [2] the test system is lipid radicals in LDL. The experiment can be described thus: Fluorescence detection of lipid radicals in LDL with NBD-Pen. How it is done:
To a solution of 20 μg protein/ml of LDL and 10 μM of NBD-Pen in phosphate buffered saline (PBS) containing 0.5% of MeCN were added 0-3 μM of CuSO4, FeSO4 or Hemin, to generate lipid radicals.
Specifically, to a solution of 20 μg protein/ml of LDL and 10 μM of NBD-Pen in phosphate buffered saline (PBS; pH 7.4) containing 0.5% of MeCN were added 0-3 μM of Hemin, to generate lipid radicals. After incubation for 60 minutes at 37° C., these reacted solutions were investigated by the respective methods.
For fluorescence detection using NBD-Pen according to the present invention, the fluorescence intensities obtained in Example 1 were expressed as ratios based on the results without addition of Hemin.

Experiment [3] can be described thus: Lipid peroxide (LOOH) detection in LDL with fluorescent probe DPPP. To be noted: concentration range used in Example 2. The protocol: The absorption band around 234 nm of conjugated dienes formed during lipid oxidation was tracked by absorbance spectrophotometry. In addition, a measurement was performed by use of diphenyl-1-pyrenylphosphate (DPPP), which is a lipid peroxide (LOOH) detection fluorescent probe.

For the compound “2,2,6-trimethyl-4-(4-nitrobenzo[1,2,5]oxadiazol-7-ylamino)-6-pentylpiperadine-1-oxyl [NBD-Pen]”, the “match of NBD-Pen fluorescence areas with oil-red stained plaques” value in experiment [1] is reported as “completely matched”. Besides, the “fluorescence intensities (λex: 470 nm, λem: 530 nm)” value in experiment [2] (20 μg protein/ml LDL, 10 μM NBD-Pen, 0-3 μM CuSO4, FeSO4 or Hemin, 60 minutes at 37° C.) is “increased in a concentration-dependent manner”. The “sensitivity of fluorescence detection” value in experiment [2] (Hemin addition, compared with Cu2+ and Fe2+) is given as “high sensitivity of fluorescence detection”.

Consider `O=P(Oc1ccccc1)(Oc1ccccc1)Oc1ccc2ccc3cccc4ccc1c2c34` [DPPP, diphenyl-1-pyrenylphosphate], for which the “detection of lipid peroxides” value in experiment [3] is reported as “neither method could detect lipid peroxides”.

(Values after patent US11725002B2, “Detection reagents and kit for identifying oxidized state and glycated state of low-density lipoproteins” (FUSO PHARMACEUTICAL INDUSTRIES, LTD., priority 2017, dated 2023).)
